Where a SMILES comes first, the peptide text is derived from it. [ ]: non-standard residue; d: D form. Phg = N[C@H](C(=O)O)c1ccccc1; Nle = CCCC[C@H](N)C(=O)O; Nva = CCC[C@H](N)C(=O)O
Key:
ComD1 receptor = ComD1 receptor (Streptococcus pneumoniae serotype 2, UniProt A0A0H2ZM50); test: cell-based
Experimental: (§1) To assess QS modulation, we utilized the β-gal reporter strains, constructed by Lau and co-worker. In these strains the lacZ gene is under the control of QS (pcomX). Thus, upon QS activation, ComE will bind pcomX and transcribe lacZ (in addition to upregulation of ComX). ComD modulation can therefore be quantified by measuring β-gal activity. The peptides were first screened for their ability to activate/inhibit the ComD1 and ComD2 receptors at high concentration (10 µM).
(§2) To examine the ability of the synthesized CSP analogs to modulate the ComD receptors, and thus the QS circuit in S. pneumoniae, β-galactosidase assays were performed using D39pcomX::lacZ (group I) and TIGR4pcomX::lacZ (group II) reporter strains as described in [19].
(§3) Bacterial growth conditions. Bacteria from a freezer stock were grown as described in [19]. Briefly, the bacteria were streaked into a THY agar plate supplemented with 5% donor horse serum and chloramphenicol at a final concentration of 4 µg/mL. The plate was incubated for 8 h in a CO2 incubator (37 °C with 5% CO2). Fresh colonies (single colony for D39pcomX::lacZ; multiple colonies for TIGR4pcomX::lacZ) were picked into sterilized cultural tubes containing 5 mL of THY broth supplemented with chloramphenicol at a final concentration of 4 µg/mL and the cultures were incubated in a CO2 incubator overnight (15 h). Overnight cultures were then diluted (1:50 for D39pcomX::lacZ; 1:10 for TIGR4pcomX::lacZ) with THY and the resulting solution was incubated in a CO2 incubator for 3–4 hours, until the bacteria reached early exponential stage (0.30–0.35 for D39pcomX::lacZ; 0.20–0.25 for TIGR4pcomX::lacZ) as determined by using a plate reader.
(§4) β-Galactosidase assay. Activation assays. […] Briefly, an initial activation screening was performed at high concentration (10 µM) for all CSP analogs. 2 µL of 1 mM solution of CSP analogs in dimethyl sulfoxide (DMSO) were added in triplicate to a clear 96-well microtiter plate. […] 2 µL of DMSO was added in triplicate and served as the negative control for both groups. Then, 198 µL of bacterial culture was added to each well containing CSP and analogs, the plate was incubated at 37 °C for 30 minutes, and the OD600nm was measured. In order to measure the β-galactosidase activity in the pneumococcal culture, the cells were lysed by incubating the culture for 30 minutes at 37 °C with 20 µL of 0.1% Triton X-100. In a new plate, 100 µL of Z-buffer solution (60.2 mM Na2HPO4, 45.8 mM NaH2PO4, 10 mM KCl, and 1.0 mM MgSO4 in 18 MΩ H2O; pH was adjusted to 7.0 and the buffer was sterilized before use) containing 2-nitrophenyl-β-D-galactopyranoside (ONPG) at a final concentration of 0.4 mg/mL was added, followed by 100 µL of lysate, and the plate was incubated for 3 hours at 37 °C. The reaction was stopped by adding 50 µL of 1 M sodium carbonate solution, and the OD420nm and OD550nm were measured using a plate reader. […] For calculation of Miller units, please see data analysis below.
(§5) Analysis of activation/inhibition data. Miller units were calculated using the following formula: […]
(§6) Abs420 is the absorbance of ortho-nitrophenol (ONP). Abs550 is the scatter from cell debris, which, when multiplied by 1.75 approximates the scatter observed at 420 nm. t is the duration of incubation with ONPG in minutes, v is volume of lysate in milliliters, and Abs600 reflects cell density.

ComD2 receptor = ComD2 receptor (Streptococcus pneumoniae serotype 4, UniProt A0A0H2US84); test: cell-based
Experimental: as §1, §2, §3, §4, §5, §6

[1] = target: ComD1 receptor (S. pneumoniae (endogenous in D39pcomX::lacZ))

Sequence of ComD2 receptor (A0A0H2US84 entry or part of it): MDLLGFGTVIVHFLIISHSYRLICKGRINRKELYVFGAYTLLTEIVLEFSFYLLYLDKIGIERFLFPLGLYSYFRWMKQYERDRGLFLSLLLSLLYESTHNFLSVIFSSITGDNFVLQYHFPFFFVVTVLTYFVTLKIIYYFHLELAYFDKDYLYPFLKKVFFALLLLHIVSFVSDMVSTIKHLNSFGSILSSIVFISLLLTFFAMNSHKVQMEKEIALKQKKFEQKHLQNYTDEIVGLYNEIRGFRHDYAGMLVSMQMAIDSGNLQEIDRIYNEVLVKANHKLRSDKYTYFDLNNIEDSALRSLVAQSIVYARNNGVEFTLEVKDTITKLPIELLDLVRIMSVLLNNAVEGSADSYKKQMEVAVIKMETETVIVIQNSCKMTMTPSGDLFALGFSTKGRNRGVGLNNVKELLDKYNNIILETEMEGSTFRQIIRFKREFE
Sequence of ComD1 receptor (A0A0H2ZM50 entry or part of it): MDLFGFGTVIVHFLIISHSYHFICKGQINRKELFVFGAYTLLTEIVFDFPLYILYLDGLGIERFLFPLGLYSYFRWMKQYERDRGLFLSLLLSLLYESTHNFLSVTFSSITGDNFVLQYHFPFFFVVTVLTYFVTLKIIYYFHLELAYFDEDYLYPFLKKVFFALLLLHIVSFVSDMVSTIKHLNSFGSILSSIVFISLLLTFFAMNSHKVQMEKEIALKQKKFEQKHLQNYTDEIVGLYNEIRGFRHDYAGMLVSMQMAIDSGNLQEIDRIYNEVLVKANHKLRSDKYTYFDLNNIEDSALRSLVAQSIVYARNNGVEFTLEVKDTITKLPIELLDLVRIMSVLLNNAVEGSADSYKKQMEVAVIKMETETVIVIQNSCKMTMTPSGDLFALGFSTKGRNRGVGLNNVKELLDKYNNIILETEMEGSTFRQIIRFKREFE

| Molecule | EC50 (ComD1 receptor) | EC50 (ComD2 receptor) | ComD2 primary agonism screening: low induction, EC50 not determined (ComD2 receptor; TIGR4pcomX::lacZ, 10 µM peptide, only analogs with greater than 75% activation compared to CSP2 were taken to EC50) | EC50 of activation of pcomX::lacZ (β-galactosidase) in reporter strain D39pcomX::lacZ (group I, ComD1) [1] |
| --- | --- | --- | --- | --- |
| CC[C@H](C)[C@H](NC(=O)[C@H](Cc1ccccc1)NC(=O)[C@H](CC(=O)O)NC(=O)[C@H](CCCNC(=N)N)NC(=O)[C@H](Cc1ccccc1)NC(=O)[C@@H](NC(=O)[C@H](CCCCN)NC(=O)[C@H](CO)NC(=O)[C@H](CC(C)C)NC(=O)[C@H](CCCNC(=N)N)NC(=O)[C@H](CCSC)NC(=O)[C@@H](N)CCC(=O)O)c1ccccc1)C(=O)N[C@@H](CC(C)C)C(=O)N[C@@H](CCC(N)=O)C(=O)N[C@@H](CCCNC(=N)N)C(=O)N[C@@H](CCCCN)C(=O)N[C@@H](CCCCN)C(=O)O [CSP1-F7FG] (H-EMRLSK[Phg]FRDFILQRKK-OH; N-terminus assumed) | 81.3 nM | 828 nM | – | – |
| CC[C@H](C)[C@H](NC(=O)[C@H](Cc1ccccc1)NC(=O)[C@H](CC(=O)O)NC(=O)[C@H](CCCNC(=N)N)NC(=O)[C@H](Cc1ccccc1)NC(=O)[C@H](CCc1ccccc1)NC(=O)[C@H](CCCCN)NC(=O)[C@H](CO)NC(=O)[C@H](CC(C)C)NC(=O)[C@H](CCCNC(=N)N)NC(=O)[C@H](CCSC)NC(=O)[C@@H](N)CCC(=O)O)C(=O)N[C@@H](CC(C)C)C(=O)N[C@@H](CCC(N)=O)C(=O)N[C@@H](CCCNC(=N)N)C(=O)N[C@@H](CCCCN)C(=O)N[C@@H](CCCCN)C(=O)O [CSP1-F7HF] | 81.7 nM | 317 nM | – | – |
| CC[C@H](C)[C@H](NC(=O)[C@H](Cc1ccccc1)NC(=O)[C@H](CC(=O)O)NC(=O)[C@H](CCCNC(=N)N)NC(=O)[C@@H](NC(=O)[C@H](Cc1ccccc1)NC(=O)[C@H](CCCCN)NC(=O)[C@H](CO)NC(=O)[C@H](CC(C)C)NC(=O)[C@H](CCCNC(=N)N)NC(=O)[C@H](CCSC)NC(=O)[C@@H](N)CCC(=O)O)c1ccccc1)C(=O)N[C@@H](CC(C)C)C(=O)N[C@@H](CCC(N)=O)C(=O)N[C@@H](CCCNC(=N)N)C(=O)N[C@@H](CCCCN)C(=O)N[C@@H](CCCCN)C(=O)O [CSP1-F8FG] (H-EMRLSKF[Phg]RDFILQRKK-OH; N-terminus assumed) | 884 nM | – | –^e | – |
| CC[C@H](C)[C@H](NC(=O)[C@H](Cc1ccccc1)NC(=O)[C@H](CC(=O)O)NC(=O)[C@H](CCCNC(=N)N)NC(=O)[C@H](CCc1ccccc1)NC(=O)[C@H](Cc1ccccc1)NC(=O)[C@H](CCCCN)NC(=O)[C@H](CO)NC(=O)[C@H](CC(C)C)NC(=O)[C@H](CCCNC(=N)N)NC(=O)[C@H](CCSC)NC(=O)[C@@H](N)CCC(=O)O)C(=O)N[C@@H](CC(C)C)C(=O)N[C@@H](CCC(N)=O)C(=O)N[C@@H](CCCNC(=N)N)C(=O)N[C@@H](CCCCN)C(=O)N[C@@H](CCCCN)C(=O)O [CSP1-F8HF] | 43.4 nM | > 1000 nM | – | – |
| CC[C@H](C)[C@H](NC(=O)[C@@H](NC(=O)[C@H](CC(=O)O)NC(=O)[C@H](CCCNC(=N)N)NC(=O)[C@H](Cc1ccccc1)NC(=O)[C@H](Cc1ccccc1)NC(=O)[C@H](CCCCN)NC(=O)[C@H](CO)NC(=O)[C@H](CC(C)C)NC(=O)[C@H](CCCNC(=N)N)NC(=O)[C@H](CCSC)NC(=O)[C@@H](N)CCC(=O)O)c1ccccc1)C(=O)N[C@@H](CC(C)C)C(=O)N[C@@H](CCC(N)=O)C(=O)N[C@@H](CCCNC(=N)N)C(=O)N[C@@H](CCCCN)C(=O)N[C@@H](CCCCN)C(=O)O [CSP1-F11FG] (H-EMRLSKFFRD[Phg]ILQRKK-OH; N-terminus assumed) | > 1000 nM | > 1000 nM | – | – |
| CC[C@H](C)[C@H](NC(=O)[C@H](CCc1ccccc1)NC(=O)[C@H](CC(=O)O)NC(=O)[C@H](CCCNC(=N)N)NC(=O)[C@H](Cc1ccccc1)NC(=O)[C@H](Cc1ccccc1)NC(=O)[C@H](CCCCN)NC(=O)[C@H](CO)NC(=O)[C@H](CC(C)C)NC(=O)[C@H](CCCNC(=N)N)NC(=O)[C@H](CCSC)NC(=O)[C@@H](N)CCC(=O)O)C(=O)N[C@@H](CC(C)C)C(=O)N[C@@H](CCC(N)=O)C(=O)N[C@@H](CCCNC(=N)N)C(=O)N[C@@H](CCCCN)C(=O)N[C@@H](CCCCN)C(=O)O [CSP1-F11HF] | 65.8 nM | > 1000 nM | – | – |
| CCCC[C@H](NC(=O)[C@H](Cc1ccccc1)NC(=O)[C@H](CC(=O)O)NC(=O)[C@H](CCCNC(=N)N)NC(=O)[C@H](Cc1ccccc1)NC(=O)[C@H](Cc1ccccc1)NC(=O)[C@H](CCCCN)NC(=O)[C@H](CO)NC(=O)[C@H](CC(C)C)NC(=O)[C@H](CCCNC(=N)N)NC(=O)[C@H](CCSC)NC(=O)[C@@H](N)CCC(=O)O)C(=O)N[C@@H](CC(C)C)C(=O)N[C@@H](CCC(N)=O)C(=O)N[C@@H](CCCNC(=N)N)C(=O)N[C@@H](CCCCN)C(=O)N[C@@H](CCCCN)C(=O)O [CSP1-I12NL] (H-EMRLSKFFRDF[Nle]LQRKK-OH; N-terminus assumed) | 6.68 nM | > 1000 nM | – | – |
| CCC[C@H](NC(=O)[C@H](Cc1ccccc1)NC(=O)[C@H](CC(=O)O)NC(=O)[C@H](CCCNC(=N)N)NC(=O)[C@H](Cc1ccccc1)NC(=O)[C@H](Cc1ccccc1)NC(=O)[C@H](CCCCN)NC(=O)[C@H](CO)NC(=O)[C@H](CC(C)C)NC(=O)[C@H](CCCNC(=N)N)NC(=O)[C@H](CCSC)NC(=O)[C@@H](N)CCC(=O)O)C(=O)N[C@@H](CC(C)C)C(=O)N[C@@H](CCC(N)=O)C(=O)N[C@@H](CCCNC(=N)N)C(=O)N[C@@H](CCCCN)C(=O)N[C@@H](CCCCN)C(=O)O [CSP1-I12NV] (H-EMRLSKFFRDF[Nva]LQRKK-OH; N-terminus assumed) | 13.8 nM | 853 nM | – | – |
| CCCC[C@H](NC(=O)[C@H](CCCNC(=N)N)NC(=O)[C@H](CCSC)NC(=O)[C@@H](N)CCC(=O)O)C(=O)N[C@@H](CO)C(=O)N[C@@H](CCCCN)C(=O)N[C@@H](Cc1ccccc1)C(=O)N[C@@H](Cc1ccccc1)C(=O)N[C@@H](CCCNC(=N)N)C(=O)N[C@@H](CC(=O)O)C(=O)N[C@@H](Cc1ccccc1)C(=O)N[C@H](C(=O)N[C@@H](CC(C)C)C(=O)N[C@@H](CCC(N)=O)C(=O)N[C@@H](CCCNC(=N)N)C(=O)N[C@@H](CCCCN)C(=O)N[C@@H](CCCCN)C(=O)O)[C@@H](C)CC [CSP1-L4NL] | 13.5 nM | > 1000 nM | – | – |
| CCC[C@H](NC(=O)[C@H](CCCNC(=N)N)NC(=O)[C@H](CCSC)NC(=O)[C@@H](N)CCC(=O)O)C(=O)N[C@@H](CO)C(=O)N[C@@H](CCCCN)C(=O)N[C@@H](Cc1ccccc1)C(=O)N[C@@H](Cc1ccccc1)C(=O)N[C@@H](CCCNC(=N)N)C(=O)N[C@@H](CC(=O)O)C(=O)N[C@@H](Cc1ccccc1)C(=O)N[C@H](C(=O)N[C@@H](CC(C)C)C(=O)N[C@@H](CCC(N)=O)C(=O)N[C@@H](CCCNC(=N)N)C(=O)N[C@@H](CCCCN)C(=O)N[C@@H](CCCCN)C(=O)O)[C@@H](C)CC [CSP1-L4NV] (H-EMR[Nva]SKFFRDFILQRKK-OH; N-terminus assumed) | 5.74 nM | 627 nM | – | – |
| CSP1-F7Y (peptide) | – | – | – | 344 nM |
| CSP1-F8FG (peptide) | – | – | – | 884 nM |
| CSP1-F8Y (peptide) | – | – | – | 85 nM |
| CSP1-F11Y (peptide) | – | – | – | 95.6 nM |
| CSP1-I12V (peptide) | – | – | – | 15.3 nM |
| CSP1-L4V (peptide) | – | – | – | 113 nM |
| CSP1-L13V (peptide) | – | – | – | 31 nM |
| competence stimulating peptide 1 (CSP1) (from UniProt P60242 25-41) | – | – | – | 10.3 nM |
